Assay results reported in patent US12059398B2, “Compositions of 1,3-butanediol and beta-hydroxybutyric acid to provide optimal therapeutic ketosis” (Health Via Modern Nutrition Inc., priority 2022, dated 2024).

Assays:
[1] = tested on: potassium channels and nitric oxide synthase; conditions: cited from earlier work
[2] = Blood D-BHB pharmacokinetics comparison of ketogenic nutritional compositions after ingestion; type: in vivo; conditions: for Blood D-BHB: dose 0.5 g (total BDO or BHB)/bodyweight kg, ingestion
Protocol: FIG. 1 is a graph showing the blood D-BHB pharmacokinetics for eight ketogenic compositions, reporting blood D-BHB mM over a time period of six hours following ingestion of the ketogenic compositions.
The blood D-BHB pharmacokinetics produced by different ketogenic nutritional compositions were evaluated and compared. The nutritional compositions include: 100% R-BDO; 90 wt. % R-BDO+10 wt. % D-BHB (acid/salt); 85 wt. % R-BDO+15 wt. % D-BHB (acid/salt); 80 wt. % R-BDO+20 wt. % D-BHB (acid/salt); 75 wt. % R-BDO+25 wt. % D-BHB (acid/salt); 70 wt. % BDO+30 wt. % D-BHB; 60 wt. % BDO+40 wt. % D-BHB; and 50% BDO+50% D-BHB via R-1,3 BDO−D-BHB monoester. The compositions were administered at a dose of 0.5 g (total BDO or BHB excluding mineral or base pairs)/bodyweight kg.
The nutritional compositions include: 100% R-BDO; 90 wt. % R-BDO+10 wt. % D-BHB (acid/salt); 85 wt. % R-BDO+15 wt. % D-BHB (acid/salt); 80 wt. % R-BDO+20 wt. % D-BHB (acid/salt); 75 wt. % R-BDO+25 wt. % D-BHB (acid/salt); 70 wt. % BDO+30 wt. % D-BHB; 60 wt. % BDO+40 wt. % D-BHB; and 50% BDO+50% D-BHB via R-1,3 BDO−D-BHB monoester.
By integrating over time rather than looking at individual concentration measurements, a more accurate estimate of the overall exposure to the drug is obtained.

[3] = dose 0.5 g/bodyweight kg, six hours following ingestion

In the case of `C[C@@H](O)CCO` [100% R-1,3-BDO (natural), R-1,3-butanediol], the “Effect on age-associated endothelial-dependent and -independent dysfunction” value ([1]; not associated with increased blood BHB concentration) is listed as “sufficient to reverse age-associated endothelial-dependent and -independent dysfunction” and the Direct vasodilator mechanism ([1]; through activation of potassium channels and nitric oxide synthase) is listed as “predominantly an endothelium-dependent vasodilator”.

For R-1,3 BDO−D-BHB monoester, the “Blood D-BHB” value ([2]; 0 minutes) was 0.3 mM, the “Blood D-BHB” value ([2]; 60 minutes) was 4.3 mM and the “Blood D-BHB” value ([2]; 120 minutes) was 1.9 mM. The “Blood D-BHB” value ([2]; 180 minutes) was 1.3 mM, the “Blood D-BHB” value ([2]; 240 minutes) was 0.5 mM and the “Blood D-BHB” value ([2]; 300 minutes) was 0.3 mM. The “Blood D-BHB” value ([2]; 360 minutes) was 0.2 mM, the “Duration of Blood D-BHB Concentrations between 1 mM and 2.5 mM” value [2, 3] was 158 min and the “Total AUC mM × minutes in optimal therapeutic ketosis range of 1-2.5 mM” value [2, 3] was 98.3 mM·min.
